Biological target: D1 receptor (Homo sapiens, UniProt P21728)
Test: Calculated fraction of D1 receptors occupied from Ki and free drug concentration
Details: at a therapeutic olanzapine level
Source text: In particular, affinities of many drugs for receptors are well known. For example, Goodman and Gilmans “The Pharmacological Basis of Therapeutics,” Tenth Edition. […] [formula]

D1 receptor, sequence (P21728 whole entry): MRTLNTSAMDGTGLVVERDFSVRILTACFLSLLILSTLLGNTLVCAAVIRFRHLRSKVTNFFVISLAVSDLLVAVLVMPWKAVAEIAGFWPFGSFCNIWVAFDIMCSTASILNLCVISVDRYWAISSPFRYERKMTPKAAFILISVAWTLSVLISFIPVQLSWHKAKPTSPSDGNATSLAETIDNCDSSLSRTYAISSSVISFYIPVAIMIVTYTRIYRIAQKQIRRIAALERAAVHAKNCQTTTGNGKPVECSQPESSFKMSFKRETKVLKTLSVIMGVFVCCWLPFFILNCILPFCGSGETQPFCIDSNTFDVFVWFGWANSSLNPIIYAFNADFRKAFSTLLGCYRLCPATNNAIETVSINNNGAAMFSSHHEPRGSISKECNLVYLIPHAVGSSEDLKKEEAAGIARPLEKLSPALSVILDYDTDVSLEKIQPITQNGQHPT

Cc1cc2c(s1)Nc1ccccc1N=C2N1CCN(C)CC1 [olanzapine]
D1 receptors blocked (antagonized): approximately 47%

— patent US20060089824A1, “Methods and systems for drug screening and computational modeling” (priority 2002, published 2006)
